Source: ChEMBL document CHEMBL4406802, “Human disorders associated with inflammation and the evolving role of natural products to overcome” (Eur J Med Chem, 2019)

Assays:
RAW264.7 [1] = test: Antiinflammatory activity in mouse RAW264.7 cells assessed as inhibition of LPS-induced nitric oxide production at 25 uM relative to control; format: functional
RAW264.7 [2] = test: Antiinflammatory activity in mouse RAW264.7 cells assessed as inhibition of LPS-induced nitric oxide production at […] after 24 hrs by Griess reagent based assay relative to control; format: functional; parameters: dose or concentration left out as unconfirmed; conditions: RAW264.7, 24 h
[3] = Inhibition of TNFalpha-induced NFkappaB (unknown origin) activation expressed in mouse NIH-3T3 cells […] followed by TNFalpha addition measured after 6 hrs by luciferase reporter gene assay; format: cell-based; conditions: NIH3T3
[4] = molecular target: Nitric oxide synthase, inducible (Homo sapiens, UniProt P35228); test: Inhibition of iNOS (unknown origin) at 20 uM relative to control
RAW264.7 [5] = test: Antiinflammatory activity in mouse RAW264.7 cells assessed as inhibition of LPS-induced nitric oxide production after 24 hrs by Griess reagent based assay relative to control; format: functional, cell-based; conditions: RAW264.7, 24 h
RAW264.7 [6] = test: Cytotoxicity against mouse RAW264.7 cells assessed as cell viability after 24 hrs by MTT assay relative to control; format: functional
RAW264.7 [7] = test: Antiinflammatory activity against mouse RAW264.7 cells assessed as inhibition of LPS induced iNOS at 30 uM preincubated for 1 hr followed by LPS stimulation measured after 18 hrs relative to control; format: functional
BV-2 = test: Antiinflammatory activity in mouse BV2 cells assessed as inhibition of LPS-induced nitric oxide production at 10 uM relative to control; format: functional
[8] = molecular target: T1, Prostaglandin G/H synthase 2 (Homo sapiens) (UniProt P35354); test: Inhibition of N-terminal His6-tagged recombinant human COX2 expressed in baculovirus infected sf21 cells at 20 uM relative to control
T1 sequence (whole entry): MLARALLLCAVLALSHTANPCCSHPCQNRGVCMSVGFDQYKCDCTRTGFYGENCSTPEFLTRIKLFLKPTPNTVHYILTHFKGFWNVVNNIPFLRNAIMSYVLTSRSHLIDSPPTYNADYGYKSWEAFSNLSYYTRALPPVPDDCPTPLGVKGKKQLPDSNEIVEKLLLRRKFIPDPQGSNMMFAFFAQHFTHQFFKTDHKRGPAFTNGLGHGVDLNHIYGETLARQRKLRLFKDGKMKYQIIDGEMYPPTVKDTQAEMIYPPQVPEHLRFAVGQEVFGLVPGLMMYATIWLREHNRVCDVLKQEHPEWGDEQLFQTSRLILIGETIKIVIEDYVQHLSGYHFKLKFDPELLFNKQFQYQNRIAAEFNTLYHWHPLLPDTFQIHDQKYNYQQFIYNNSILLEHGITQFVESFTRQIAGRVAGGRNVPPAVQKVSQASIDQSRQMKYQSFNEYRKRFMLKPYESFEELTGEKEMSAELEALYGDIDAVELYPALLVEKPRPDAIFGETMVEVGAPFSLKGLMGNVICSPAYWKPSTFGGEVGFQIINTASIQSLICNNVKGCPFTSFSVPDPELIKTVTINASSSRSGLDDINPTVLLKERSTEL

[9] = molecular target: T2, Prostaglandin G/H synthase 2 (Homo sapiens, UniProt P35354); test: Inhibition of COX2 (unknown origin)
T2 sequence (P35354 whole entry): T1 sequence (whole entry)

[10] = molecular target: T3, Prostaglandin G/H synthase 1 (Ovis aries, UniProt P05979); test: Inhibition of ovine COX1
T3 sequence (P05979 whole entry): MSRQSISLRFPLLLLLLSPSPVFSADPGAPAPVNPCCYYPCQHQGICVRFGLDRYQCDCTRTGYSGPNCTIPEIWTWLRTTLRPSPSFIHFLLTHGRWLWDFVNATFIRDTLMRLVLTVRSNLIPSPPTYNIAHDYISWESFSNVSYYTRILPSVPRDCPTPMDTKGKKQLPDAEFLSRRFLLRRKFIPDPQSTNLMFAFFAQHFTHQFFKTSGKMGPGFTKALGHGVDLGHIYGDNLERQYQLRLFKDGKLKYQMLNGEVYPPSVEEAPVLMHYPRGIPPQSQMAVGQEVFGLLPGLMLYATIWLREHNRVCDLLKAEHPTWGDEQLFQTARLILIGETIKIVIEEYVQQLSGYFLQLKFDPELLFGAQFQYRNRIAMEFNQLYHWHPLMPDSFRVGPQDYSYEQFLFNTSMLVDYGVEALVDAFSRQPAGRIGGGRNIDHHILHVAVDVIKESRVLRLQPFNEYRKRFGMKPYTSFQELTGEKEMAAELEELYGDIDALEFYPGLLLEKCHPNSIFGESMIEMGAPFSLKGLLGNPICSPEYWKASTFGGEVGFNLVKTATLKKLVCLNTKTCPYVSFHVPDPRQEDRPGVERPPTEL

Chain of Nitric oxide synthase, inducible (P35228 whole entry): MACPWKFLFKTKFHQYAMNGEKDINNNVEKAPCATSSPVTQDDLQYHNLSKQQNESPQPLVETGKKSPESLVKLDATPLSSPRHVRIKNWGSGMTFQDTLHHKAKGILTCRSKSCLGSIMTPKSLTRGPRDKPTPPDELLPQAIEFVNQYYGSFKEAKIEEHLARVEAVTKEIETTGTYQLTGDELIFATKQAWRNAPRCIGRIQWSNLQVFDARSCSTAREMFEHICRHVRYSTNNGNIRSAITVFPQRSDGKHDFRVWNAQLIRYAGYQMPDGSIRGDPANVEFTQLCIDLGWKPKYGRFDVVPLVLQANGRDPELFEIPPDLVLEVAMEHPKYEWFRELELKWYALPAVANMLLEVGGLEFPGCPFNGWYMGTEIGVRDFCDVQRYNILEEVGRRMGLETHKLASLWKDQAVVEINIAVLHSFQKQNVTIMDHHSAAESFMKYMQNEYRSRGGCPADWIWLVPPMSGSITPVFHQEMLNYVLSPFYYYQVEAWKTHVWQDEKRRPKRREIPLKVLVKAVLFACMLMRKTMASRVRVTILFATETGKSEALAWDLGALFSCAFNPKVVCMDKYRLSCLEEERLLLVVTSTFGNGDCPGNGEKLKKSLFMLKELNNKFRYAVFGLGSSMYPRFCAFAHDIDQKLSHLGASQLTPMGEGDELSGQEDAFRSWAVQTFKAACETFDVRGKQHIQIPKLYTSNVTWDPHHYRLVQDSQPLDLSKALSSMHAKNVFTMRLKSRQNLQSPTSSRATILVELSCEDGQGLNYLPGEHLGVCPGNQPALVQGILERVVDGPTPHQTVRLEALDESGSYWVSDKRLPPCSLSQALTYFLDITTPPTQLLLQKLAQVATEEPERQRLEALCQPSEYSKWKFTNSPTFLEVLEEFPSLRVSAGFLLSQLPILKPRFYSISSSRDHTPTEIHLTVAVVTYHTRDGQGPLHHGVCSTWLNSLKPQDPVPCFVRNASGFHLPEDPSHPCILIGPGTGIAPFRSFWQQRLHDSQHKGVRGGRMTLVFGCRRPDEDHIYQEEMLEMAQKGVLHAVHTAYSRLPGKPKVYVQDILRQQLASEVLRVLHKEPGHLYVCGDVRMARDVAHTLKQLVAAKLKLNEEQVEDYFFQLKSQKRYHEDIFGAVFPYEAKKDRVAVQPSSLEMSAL

## C=C1C(=O)O[C@@H]2C[C@]3(C)C(O)CCC(C)C3(O)C[C@H]12 (some centres not stated)
RAW264.7 [1]
  inhibition at 25 µM: 37.1%

## CC(C)=CCOc1cc(O)c2c(=O)c3cc(OCC=C(C)C)c(O)cc3oc2c1
RAW264.7 [2]
  inhibition: 84.2%

## C=C[C@]1(C)C[C@H](OC(=O)C(=C)CO)[C@H]2C(=C)C(=O)O[C@@H]2[C@H]1C(=C)C=O
[3]
  IC50: 3.6 µM

## C=C[C@]1(C)C[C@H](OC(=O)C(=C)CO)[C@H]2C(=C)C(=O)O[C@@H]2[C@H]1C(=C)CO
[3]
  IC50: 22.5 µM

## COc1cc(C2OCC3C(c4ccc(O)c(OC)c4)OCC23)ccc1O (configuration not stated)
[4]
  inhibition: 49.1%

## CC1CCC(O)[C@@]2(C)C[C@H]3OC(=O)[C@H](C)[C@H]3C=C12 (some centres not stated)
RAW264.7 [1]
  inhibition at 25 µM: 14.6%

## C[C@@H]1O[C@@H](O[C@H]2[C@H](O[C@H]3[C@H](O[C@H]4CC[C@@]5(C)[C@@H](CC[C@]6(C)[C@@H]5CC=C5[C@@H]7C[C@]8(C)C[C@@H](OC8=O)[C@]7(C)CC[C@]56C)[C@@]4(C)CO)O[C@H](C(=O)O)[C@@H](O)[C@@H]3O)O[C@H](CO)[C@H](O)[C@@H]2OC=O)[C@H](O)[C@H](O)[C@H]1O
RAW264.7 [5]
  IC50: 16.1 µM
RAW264.7 [6]
  Activity: 95.2%

## C=C1C(=O)O[C@@H]2C[C@@]3(C)C(=C(C)C(O)CC3O)C[C@H]12 (some centres not stated)
RAW264.7 [1]
  inhibition at 25 µM: 23.8%

## CC1(C)CC[C@]2(C(=O)O[C@@H]3O[C@H](CO)[C@@H](O)[C@H](O)[C@H]3O)CC[C@]3(C)C(=CC[C@@H]4[C@@]5(C)CC[C@H](O[C@@H]6O[C@H](C(=O)O)[C@@H](O)[C@H](O)[C@H]6O)C(C)(C)[C@@H]5CC[C@]43C)[C@@H]2C1 [CHIKUSETSUSAPONIN IVA]
RAW264.7 [7]
  inhibition at 30 µM: 92.8%

## O=c1c2ccc(O)c(O)c2oc2cc(O)cc(O)c12
RAW264.7 [2]
  inhibition: 78.9%

## C=C[C@]1(C)C[C@H](OC(=O)C(=C)CO)[C@@H](C(=C)C(=O)OC)[C@H](O)[C@H]1C(=C)CO
[3]
  IC50: 45 µM

## COc1ccc(CC2COC(=O)C2Cc2cc(C(=O)O)oc(=O)c2)cc1OC (configuration not stated)
BV-2
  inhibition at 10 µM: 75.5%

## COc1cc(C)c2c(=O)c3c(O)cc(OC)cc3oc2c1 [LICHEXANTHONE]
RAW264.7 [2]
  inhibition: 32%

## C=C1C(=O)O[C@@H]2/C=C(\CO)CC/C=C(\C)C[C@H](OC(=O)/C(=C/C)CO)[C@@H]12
[3]
  IC50: 42.1 µM

## CC(C)=CCOc1cc(O)c2c(=O)c3cc(OCC=C(C)C)c(OCC=C(C)C)cc3oc2c1
RAW264.7 [2]
  inhibition: 81.4%

## C=C1C(=O)O[C@@H]2[C@H]3[C@@H](C)C(=O)C[C@H]3C(=C)CC[C@@H]12
[8]
  inhibition: 98.6%
[4]
  inhibition: 100%

## C[C@@H]1[C@H](O)CC[C@]2(C(=O)O)CC[C@]3(C)C(CC[C@@H]4[C@@]5(C)CC[C@H](O[C@@H]6O[C@H](C(=O)O)[C@@H](O)[C@H](O)[C@H]6O[C@@H]6O[C@H](CO)[C@H](O)[C@H](O)[C@H]6O[C@@H]6O[C@@H](C)[C@H](O)[C@@H](O)[C@H]6O)C(C)(C)[C@@H]5CC[C@]43C)[C@H]12 (some centres not stated)
RAW264.7 [5]
  IC50: 13.2 µM
RAW264.7 [6]
  Activity: 96.8%

## COc1ccc(C(O)C2COC(=O)C2Cc2ccc(OC3O[C@H](CO)[C@@H](O)[C@H](O)[C@H]3O)c(OC)c2)cc1OC (some centres not stated)
BV-2
  inhibition at 10 µM: 87.8%

## COc1cc(CC2C(=O)OCC2C(O)c2ccc(OC)c(OC)c2)ccc1O (configuration not stated)
BV-2
  inhibition at 10 µM: 63.3%

## COOC[C@@]1(C)CC[C@]2(C)CC[C@]3(C)[C@@H]4CCc5cc(O)c(O)cc5[C@]4(C)CC[C@@]3(C)C2C1 (some centres not stated)
[9]
  IC50: 430 µM

## C=C(C)[C@@H]1CC[C@]2(C)CC[C@]3(C)[C@H](CCC4[C@@]5(C)[C@H](O)C[C@H](OC(C)=O)C(C)(C)[C@@H]5CC[C@]43C)[C@@H]12 (some centres not stated)
[9]
  IC50: 540 µM

## C=C1C(=O)OC2CC(C)=C(C(C)CCCOC(C)=O)C(OC(C)=O)C12 (configuration not stated)
RAW264.7 [1]
  inhibition at 25 µM: 68.9%

## O=C(/C=C/c1ccc(O)c(O)c1)OC1CC(O)(C(=O)O)CC(OC(=O)/C=C/c2ccc(O)c(O)c2)C1O (configuration not stated)
[10]
  IC50: 4.96 µM

## COc1cc(/C=C/C(=O)CC(=O)/C=C/c2ccc(O)c(OC)c2)ccc1O [CURCUMIN]
BV-2
  inhibition at 10 µM: 53%

## CC1=C(C)[C@H]2C3=CC[C@@H]4[C@@]5(C)CC[C@H](O[C@@H]6OC[C@@H](O)[C@H](O)[C@H]6O[C@@H]6O[C@H](CO)[C@@H](O)[C@H](O)[C@H]6O)C(C)(C)[C@@H]5CC[C@@]4(C)[C@]3(C)CC[C@@]2(C(=O)O[C@@H]2O[C@H](CO)[C@@H](O)[C@H](O)[C@H]2O)CC1
RAW264.7 [7]
  inhibition at 30 µM: 72%

## C=C(CO)C(=O)O[C@H]1C[C@@H]2[C@@H]([C@@H](O)[C@@H]1C(=C)C(=O)OC)[C@H](C=O)CC[C@H]2O
[3]
  IC50: > 50 µM

## O=C(/C=C/c1ccc(O)c(O)c1)OC1CC(O)(C(=O)O)CC(O)C1OC(=O)/C=C/c1ccc(O)c(O)c1 (configuration not stated)
[10]
  IC50: 5.87 µM

## CC1=C2C3=CC[C@@H]4[C@@]5(C)CC[C@H](O[C@@H]6OC[C@@H](O)[C@H](O)[C@H]6O[C@@H]6O[C@H](CO)[C@@H](O)[C@H](O)[C@H]6O)C(C)(C)[C@@H]5CC[C@@]4(C)[C@]3(C)CC[C@@]2(C(=O)O[C@@H]2O[C@H](CO)[C@@H](O)[C@H](O)[C@H]2O)CC[C@H]1C
RAW264.7 [7]
  inhibition at 30 µM: 75%

## C=C(CO)C(=O)O[C@H]1C/C(C)=C/CC/C(CO)=C/[C@H]2OC(=O)C(=C)[C@H]12
[3]
  IC50: 8.6 µM

## O=C(/C=C/c1ccc(O)c(O)c1)OC(C(=O)O)C(OC(=O)/C=C/c1ccc(O)c(O)c1)C(OC(=O)/C=C/c1ccc(O)c(O)c1)C(OC(=O)/C=C/c1ccc(O)c(O)c1)C(=O)O (configuration not stated)
[10]
  IC50: 2.09 µM

## C=C(C)[C@@H]1CC[C@]2(C)CC[C@]3(C)[C@H](CCC4[C@@]5(C)[C@H](O)C[C@H](O)C(C)(C)[C@@H]5CC[C@]43C)[C@@H]12 (some centres not stated)
[9]
  IC50: 450 µM

## C=C1[C@@H]2[C@H]3OC(=O)C(=C)[C@@H]3CCC(=C)[C@@H]2C[C@@H]1O
[8]
  inhibition: 97%
[4]
  inhibition: 99.4%

## CC1=C2C[C@H]3[C@@H](C[C@]2(C)C(O)CC1=O)OC(=O)[C@@H]3C (some centres not stated)
RAW264.7 [1]
  inhibition at 25 µM: 23.6%

## C[C@@H]1O[C@@H](O[C@H]2[C@H](O[C@H]3[C@H](O[C@H]4CC[C@@]5(C)[C@@H](CC[C@]6(C)[C@@H]5CC=C5[C@@H]7C[C@]8(C)C[C@@H](OC8=O)[C@]7(C)CC[C@]56C)[C@@]4(C)CO)O[C@H](C(=O)O)[C@@H](O)[C@@H]3O)OC[C@@H](O)[C@@H]2O)[C@H](O)[C@H](O)[C@H]1O
RAW264.7 [5]
  IC50: 18.8 µM
RAW264.7 [6]
  Activity: 97.6%

## COc1cc(CC2C(=O)OCC2Cc2cc(OC)c(O)c(C(CO)CO)c2)ccc1OC1O[C@H](CO)[C@@H](O)[C@H](O)[C@H]1O (some centres not stated)
BV-2
  inhibition at 10 µM: 71.6%

## CC(C)=CC[C@@H]1C[C@]23C[C@@H](CC=C(C)C)C(C)(C)[C@](CC=C(C)C)(C(=O)C(C(=O)c4ccc(O)c(O)c4)=C2OC1(C)C)C3=O
RAW264.7 [2]
  inhibition: 92.9%

## CC1=C2C3=CC[C@@H]4[C@@]5(C)CC[C@H](O[C@@H]6OC[C@@H](O)[C@H](O)[C@H]6O)C(C)(C)[C@@H]5CC[C@@]4(C)[C@]3(C)CC[C@@]2(C(=O)O[C@@H]2O[C@H](CO)[C@@H](O)[C@H](O)[C@H]2O)CC[C@H]1C
RAW264.7 [7]
  inhibition at 30 µM: 64.9%
